Assay results reported in US9085555B2, “Complement pathway modulators and uses thereof” (priority 2011, dated 2015).
Where two headings read alike, the source gives them in different places.

Target: Factor D (Homo sapiens (Human), UniProt P00746)
Assay: biochemical
Format: biochemical

Sequence of Factor D (P00746 26-253): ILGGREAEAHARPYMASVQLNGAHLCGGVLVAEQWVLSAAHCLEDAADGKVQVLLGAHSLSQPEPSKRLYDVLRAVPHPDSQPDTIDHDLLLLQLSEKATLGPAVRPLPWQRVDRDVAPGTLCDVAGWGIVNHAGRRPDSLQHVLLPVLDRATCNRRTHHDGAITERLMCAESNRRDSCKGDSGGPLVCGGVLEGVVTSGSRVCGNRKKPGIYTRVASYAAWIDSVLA

SMILES | IC50 (read-out: IC50) [nM] | IC50 [nM]
CC(=O)c1nn(CC(=O)N2[C@@H]3C[C@@H]3C[C@H]2C(=O)Nc2cccc(Br)n2)c2cnccc12 [Example 736, (1R,3S,5R)-2-[2-(3-Acetyl-pyrazolo[3,4-c]pyridin-1-yl)-acetyl]-2-aza-bicyclo[3.1.0] hexane-3-carboxylic acid (6-bromo-pyridin-2-yl)-amide] | 18 | –
NC(=O)n1cc(NC(=O)N2C[C@@](F)(CO)C[C@H]2C(=O)NCc2cccc(Cl)c2F)c2ccccc21 [Example 181, (2S,4R)-4-Fluoro-4-hydroxymethyl-pyrrolidine-1,2-dicarboxylic acid 1-[(1-carbamoyl-1H-indol-3-yl)-amide] 2-(3-chloro-2-fluoro-benzylamide)] | 20 | –
C[C@@H](NC(=O)[C@@H]1C[C@@H](F)CN1C(=O)Cn1nc(C(N)=O)c2ccncc21)c1cccc(Cl)c1F [Example 690, 1-(2-{(2S,4R)-2-[(R)-1-(3-Chloro-2-fluoro-phenyl)-ethylcarbamoyl]-4-fluoro-pyrrolidin-1-yl}-2-oxo-ethyl)-1H-pyrazolo[3,4-c]pyridine-3-carboxylic acid amide] | 34 | –
C[C@@H]1CC[C@@H](C(=O)Nc2cccc(OC(F)(F)F)c2)N1C(=O)Nc1cn(C(N)=O)c2ccccc12 [Example 336, (2S,5R)-5-Methyl-pyrrolidine-1,2-dicarboxylic acid 1-[(1-carbamoyl-1H-indol-3-yl)-amide]2-[(3-trifluoromethoxy-phenyl)-amide]] | 750 | –
NC(=O)n1cc(NC(=O)N2NCCC2C(=O)NCc2cccc(Cl)c2)c2ccccc21 (centres unmarked) [Example 434, Pyrazolidine-1,5-dicarboxylic acid 1-[(1-carbamoyl-1H-indol-3-yl)-amide]5-(3-chloro-benzylamide)] | 35 | –
CC(=O)c1cn(CC(=O)N2C[C@H](F)C[C@H]2C(=O)NCc2cccc(Cl)c2F)c2cc(Cl)ccc12 [Example 531, (2S,4R)-1-[2-(3-Acetyl-6-chloro-indol-1-yl)-acetyl]-4-fluoro-pyrrolidine-2-carboxylic acid 3-chloro-2-fluoro-benzylamide] | 11 | –
NC(=O)n1cc(NC(=O)N2C[C@H](F)C[C@H]2C(=O)N[C@@H](c2cccc(Cl)c2)C(F)(F)F)c2ccccc21 [Example 296, (2S,4R)-4-Fluoro-pyrrolidine-1,2-dicarboxylic acid 1-[(1-carbamoyl-1H-indol-3-yl)-amide] 2-{[(S)-1-(3-chloro-phenyl)-2,2,2-trifluoro-ethyl]-amide}] | 218 | –
NC(=O)n1cc(NC(=O)N2C[C@H](F)C[C@H]2CNS(=O)(=O)c2cccc(F)c2)c2ccccc21 [Example 106, 3-({(2S,4R)-4-Fluoro-2-[(3-fluoro-benzenesulfonylamino)-methyl]-pyrrolidine-1-carbonyl}-amino)-indole-1-carboxylic acid amide] | 700 | –
N#C[C@H]1C[C@@H](C(=O)Nc2cccc(OC(F)(F)F)c2)N(C(=O)Nc2cn(C(N)=O)c3ccccc23)C1 [Example 125, (2S,4S)-4-Cyano-pyrrolidine-1,2-dicarboxylic acid 1-[(1-carbamoyl-1H-indol-3-yl)-amide]2-[(3-trifluoromethoxy-phenyl)-amide]] | 5100 | –
NC(=O)n1cc(NC(=O)N2C[C@H]3C[C@H]3[C@H]2C(=O)NCc2cccc(Cl)c2)c2ccccc21 (relative stereo) [Example 167, (1R*,2S*,5S*)-3-Aza-bicyclo[3.1.0]hexane-2,3-dicarboxylic acid 3-[(1-carbamoyl-1H-indol-3-yl)-amide] 2-(3-chloro-benzylamide)] | – | 108
NC(=O)c1cn(CC(=O)N2C[C@H](F)C[C@H]2C(=O)NCc2cccc(Cl)c2F)c2cc(Br)c(F)cc12 [Example 479, 6-Bromo-1-{2-[(2S,4R)-2-(3-chloro-2-fluoro-benzylcarbamoyl)-4-fluoro-pyrrolidin-1-yl]-2-oxo-ethyl}-5-fluoro-1H-indole-3-carboxylic acid amide] | 89 | –
CO[C@H]1[C@@H](C(=O)NC2(c3cccc(Cl)c3F)CC2)N(C(=O)Cn2nc(C(C)=O)c3ccncc32)C[C@@H]1F [Example 631, (2S,3S,4S)-1-[2-(3-Acetyl-pyrazolo[3,4-c]pyridin-1-yl)-acetyl]-4-fluoro-3-methoxy-pyrrolidine-2-carboxylic acid [1-(3-chloro-2-fluoro-phenyl)-cyclopropyl]-amide] | 11 | –
Cc1ccnc(CNC(=O)[C@@H]2C[C@H](N)CN2C(=O)Nc2cn(C(N)=O)c3ccccc23)c1 [Example 67, (2S,4S)-4-Amino-pyrrolidine-1,2-dicarboxylic acid 1-[(1-carbamoyl-1H-indol-3-yl)-amide] 2-[(4-methyl-pyridin-2-ylmethyl)-amide]] | 22200 | –
NC(=O)n1cc(NC(=O)N2CC3(CC3)C[C@H]2C(=O)NCc2cccc(Cl)c2)c2ccccc21 [Example 180, (S)-5-Aza-spiro[2.4]heptane-5,6-dicarboxylic acid 5-[(1-carbamoyl-1H-indol-3-yl)-amide] 6-(3-chloro-benzylamide)] | 650 | –
N#Cc1cccc(CNC(=O)[C@@H]2C[C@H](N)CN2C(=O)Nc2cn(C(N)=O)c3ccccc23)c1 [Example 33, (2S,4S)-4-Amino-pyrrolidine-1,2-dicarboxylic acid 1-[(1-carbamoyl-1H-indol-3-yl)-amide] 2-(3-cyano-benzylamide)] | 24000 | –
NC(=O)n1cc(NC(=O)N2C[C@@](F)(CN3CCOCC3)C[C@H]2C(=O)NCc2cccc(Cl)c2F)c2ccccc21 [Example 243, (2S,4S)-4-Fluoro-4-morpholin-4-ylmethyl-pyrrolidine-1,2-dicarboxylic acid 1-[(1-carbamoyl-1H-indol-3-yl)-amide] 2-(3-chloro-2-fluoro-benzylamide)] | 200 | –
NC(=O)c1nn(CC(=O)N2[C@@H]3C[C@@H]3C[C@H]2C(=O)Nc2cccc(-c3c(F)cccc3F)n2)c2cnccc12 [Example 721, 1-(2-{(1R,3S,5R)-3-[6-(2,6-Difluoro-phenyl)-pyridin-2-ylcarbamoyl]-2-aza-bicyclo[3.1.0]hex-2-yl}-2-oxo-ethyl)-1H-pyrazolo[3,4-c]pyridine-3-carboxamide] | 98 | –
C[C@@]12C[C@@H](C(=O)Nc3cccc(Br)n3)N(C(=O)Cn3nc(C(N)=O)c4ccccc43)[C@@H]1C2 [Example 744, 1-{2-[(1R,3S,5R)-3-(6-Bromo-pyridin-2-ylcarbamoyl)-5-methyl-2-aza-bicyclo[3.1.0]hex-2-yl]-2-oxo-ethyl}-1H-indazole-3-carboxylic acid amide] | 4 | –
NC(=O)n1cc(NC(=O)N2CCC[C@H]2C(=O)Nc2cccc(S(N)(=O)=O)c2)c2ccccc21 [Example 233, (S)-Pyrrolidine-1,2-dicarboxylic acid 1-[(1-carbamoyl-1H-indol-3-yl)-amide] 2-[(3-sulfamoyl-phenyl)-amide]] | 850 | –
NC(=O)n1cc(NC(=O)N2CC=C[C@H]2C(=O)Nc2cccc(OC(F)(F)F)c2)c2ccccc21 [Example 145, (S)-2,5-Dihydro-pyrrole-1,2-dicarboxylic acid 1-[(1-carbamoyl-1H-indol-3-yl)-amide] 2-[(3-trifluoromethoxy-phenyl)-amide]] | 300 | –
CC(=O)c1cn(CC(=O)N2[C@@H]3C[C@@H]3C[C@H]2C(=O)NCc2cccc(Cl)c2F)c2ccncc12 [Example 524, (1R,3S,5R)-2-[2-(3-Acetyl-pyrrolo[3,2-c]pyridin-1-yl)-acetyl]-2-aza-bicyclo[3.1.0]hexane-3-carboxylic acid 3-chloro-2-fluoro-benzylamide] | 64 | –
CC(=O)n1cc(NC(=O)N2C[C@@H](CO)C[C@H]2C(=O)NCc2cccc(Cl)c2F)c2ccccc21 [Example 260, (2S,4S)-4-Hydroxymethyl-pyrrolidine-1,2-dicarboxylic acid 1-[(1-acetyl-1H-indol-3-yl)-amide] 2-(3-chloro-2-fluoro-benzylamide)] | 200 | –
NC(=O)n1cc(NC(=O)N2C[C@H](F)C[C@H]2CNS(=O)(=O)c2ccccc2F)c2ccccc21 [Example 104, 3-({(2S,4R)-4-Fluoro-2-[(2-fluoro-benzenesulfonylamino)-methyl]-pyrrolidine-1-carbonyl}-amino)-indole-1-carboxylic acid amide] | 1490 | –
NC(=O)n1cc(NC(=O)N2C[C@H](F)C[C@H]2C(=O)NCc2cncc(F)c2)c2ccccc21 [Example 215, (2S,4R)-4-Fluoro-pyrrolidine-1,2-dicarboxylic acid 1-[(1-carbamoyl-1H-indol-3-yl)-amide] 2-[(5-fluoro-pyridin-3-ylmethyl)-amide]] | 386 | –
NC(=O)n1cc(NC(=O)N2C[C@H](F)C[C@H]2CNS(=O)(=O)c2cccc(Cl)c2)c2ccccc21 [Example 107, 3-({(2S,4R)-4-Fluoro-2-[(3-chloro-benzenesulfonylamino)-methyl]-pyrrolidine-1-carbonyl}-amino)-indole-1-carboxylic acid amide] | 75 | –
Cc1cccc(CNC(=O)[C@@H]2C[C@H](N)CN2C(=O)Nc2cn(C(N)=O)c3ccccc23)c1 [Example 30, (2S,4S)-4-Amino-pyrrolidine-1,2-dicarboxylic acid 1-[(1-carbamoyl-1H-indol-3-yl)-amide] 2-(3-methyl-benzylamide)] | 2700 | –
COc1ccc2c(c1)c(NC(=O)N1C3CC3C[C@H]1C(=O)NCc1cccc(Cl)c1F)cn2C(N)=O (stereo partly drawn) [Example 300, (1R,3S,5R)-2-Aza-bicyclo[3.1.0]hexane-2,3-dicarboxylic acid 2-[(1-carbamoyl-5-methoxy-1H-indol-3-yl)-amide] 3-(3-chloro-2-fluoro-benzylamide)] | 4 | –
NC(=O)n1cc(NC(=O)N2[C@@H]3C[C@@H]3C[C@H]2C(=O)NCc2cccc(Cl)c2F)c2cc(CC(=O)O)ccc21 [Example 377, (1-Carbamoyl-3-{[(1R,3S,5R)-3-(3-chloro-2-fluoro-benzylcarbamoyl)-2-aza-bicyclo[3.1.0]hexane-2-carbonyl]-amino}-1H-indol-5-yl)-acetic acid] | 20 | –
NC(=O)n1cc(CC(=O)N2C[C@H](F)[C@@H](N)[C@H]2C(=O)NCc2cccc(Cl)c2F)c2ccccc21 [Example 466, 3-{2-[(2S,3S,4S)-3-Amino-2-(3-chloro-2-fluoro-benzylcarbamoyl)-4-fluoro-pyrrolidin-1-yl]-2-oxo-ethyl}-indole-1-carboxylic acid amide] | 43 | –
